{"source": "patent US20240245673A1", "about": "“Papain-like protease (PLpro) inhibitors” (Pfizer Inc., priority 2022, published 2024)", "data": [{"target": "SARS-CoV-2 Papain like protease (PLpro) (Severe acute respiratory syndrome coronavirus 2 (2019-nCoV) (SARS-CoV-2), UniProt P0DTD1)", "test": "Papain Like Protease (PLpro) biochemical assay with profluorogenic substrate Z-RLRGG-AMC", "details": "IC50 (μM), SARS-CoV-2 PLpro 6.25 nM, 25 μM Z-RLRGG-AMC substrate, 60 minute reaction", "units": {"IC50": "µM"}, "values": [{"smiles": "Cc1ccccc1C(=O)NC(C)c1cc(-c2cnn(C(F)F)c2)nc2ccccc12", "note": "(stereo not shown) [Example 105, N-(1-{2-[1-(difluoromethyl)-1H-pyrazol-4-yl]quinolin-4-yl}ethyl)-2-methylbenzamide]", "IC50": 0.266}, {"smiles": "CCn1cc(-c2cc(C(C)NC(=O)c3ccccc3C)c3ccccc3n2)cn1", "note": "(stereo not shown) [Example 110, N-{1-[2-(1-ethyl-1H-pyrazol-4-yl)quinolin-4-yl]ethyl}-2-methylbenzamide]", "IC50": 0.224}]}, {"target": "SARS-CoV-2 Papain like protease (PLpro) (Severe acute respiratory syndrome coronavirus 2 (2019-nCoV) (SARS-CoV-2), UniProt P0DTD1)", "test": "Papain Like Protease (PLpro) biochemical assay with profluorogenic substrate Z-RLRGG-AMC", "details": "SARS-CoV-2 PLpro 6.25 nM, 25 μM Z-RLRGG-AMC substrate, 60 minute reaction; read-out: IC50", "units": {"IC50": "µM"}, "values": [{"smiles": "Cc1ccccc1C(=O)N[C@H](C)c1cc(OCC2COC2)nc2ccccc12", "note": "[Example 44, (R)-2-methyl-N-(1-(2-(oxetan-3-ylmethoxy)quinolin-4-yl)ethyl)benzamide]", "IC50": 3.97}, {"smiles": "Cc1ccccc1C(=O)N[C@H](C)c1cc(OCCO)nc2ccccc12", "note": "[Example 45, (R)-N-(1-(2-(2-hydroxyethoxy)quinolin-4-yl)ethyl)-2-methylbenzamide]", "IC50": 3.48}, {"smiles": "Cc1ccccc1C(=O)N[C@H](C)c1cc(OC2CCOC2)nc2ccccc12", "note": "(stereo partly drawn) [Example 46, 2-methyl-N-((1R)-1-(2-((tetrahydrofuran-3-yl)oxy)quinolin-4-yl)ethyl)benzamide]", "IC50": 3.62}, {"smiles": "COCCOc1cc([C@@H](C)NC(=O)c2ccccc2C)c2ccccc2n1", "note": "[Example 47, (R)-N-(1-(2-(2-methoxyethoxy)quinolin-4-yl)ethyl)-2-methylbenzamide]", "IC50": 3.13}, {"smiles": "Cc1ccccc1C(=O)N[C@H](C)c1cc(-c2ccn[nH]2)nc2ccccc12", "note": "[Example 48, (R)—N-(1-(2-(1H-pyrazol-5-yl)quinolin-4-yl)ethyl)-2-methylbenzamide]", "IC50": 0.28}, {"smiles": "Cc1ccccc1C(=O)N[C@H](C)c1cc(-c2cnn(C)c2)nc2ccccc12", "note": "[Example 49, (R)-2-methyl-N-(1-(2-(1-methyl-1H-pyrazol-4-yl)quinolin-4-yl)ethyl)benzamide]", "IC50": 0.151}, {"smiles": "Cc1ccccc1C(=O)N[C@H](C)c1cc(-c2ccnn2C)nc2ccccc12", "note": "[Example 50, (R)-2-methyl-N-(1-(2-(1-methyl-1H-pyrazol-5-yl)quinolin-4-yl)ethyl)benzamide]", "IC50": 0.489}, {"smiles": "Cc1ccc(NC(=O)[C@H]2CCCCN2)cc1C(=O)NC(C)c1cc(-c2cn[nH]c2)cc2ccccc12", "note": "(stereo partly drawn) [Example 51, (2R)—N-(3-((1-(3-(1H-pyrazol-4-yl)naphthalen-1-yl)ethyl)carbamoyl)-4-methylphenyl)piperidine-2-carboxamide]", "IC50": 0.019}, {"smiles": "Cc1cc(CNC(=O)c2cscn2)ccc1C(=O)NC(C)c1cc(-c2cnn(C)c2)cc2ccccc12", "note": "(stereo not shown) [Example 54, N-(3-methyl-4-((1-(3-(1-methyl-1H-pyrazol-4-yl)naphthalen-1-yl)ethyl)carbamoyl)benzyl)thiazole-4-carboxamide]", "IC50": 0.028}, {"smiles": "Cc1ccc(N2CCNCC2)cc1C(=O)N[C@H](C)c1cc(-c2cnn(C)c2)nc2ccccc12", "note": "[Example 55, (R)-2-methyl-N-(1-(2-(1-methyl-1H-pyrazol-4-yl)quinolin-4-yl)ethyl)-5-(piperazin-1-yl)benzamide]", "IC50": 0.018}, {"smiles": "Cc1ccc(CN)cc1C(=O)N[C@H](C)c1cc(-c2cc(C(=O)N(C)C)c[nH]2)nc2ccccc12", "note": "[Example 56, 5-{4-[(1R)-1-{[5-(aminomethyl)-2-methylphenyl]formamido}ethyl]quinolin-2-yl}-N,N-dimethyl-1H-pyrrole-3-carboxamide]", "IC50": 0.02}, {"smiles": "CNCc1ccc(C)c(C(=O)N[C@H](C)c2cc(-c3cc(C(=O)OC)c[nH]3)nc3ccccc23)c1", "note": "[Example 57, methyl (R)-5-(4-(1-(2-methyl-5-((methylamino)methyl)benzamido)ethyl)quinolin-2-yl)-1H-pyrrole-3-carboxylate]", "IC50": 0.013}, {"smiles": "Cc1ccccc1C(=O)N[C@H](C)c1cc(-c2cnoc2)nc2ccccc12", "note": "[Example 58, (R)-N-(1-(2-(isoxazol-4-yl)quinolin-4-yl)ethyl)-2-methylbenzamide]", "IC50": 100}, {"smiles": "Cc1ccc(N2CCNCC2)cc1C(=O)NC(C)c1cc(-c2cnn(C)c2)cc2ccccc12", "note": "(stereo not shown) [Example 59, 2-methyl-N-(1-(3-(1-methyl-1H-pyrazol-4-yl)naphthalen-1-yl)ethyl)-5-(piperazin-1-yl)benzamide]", "IC50": 0.025}, {"smiles": "Cc1ccc(CNS(C)(=O)=O)cc1C(=O)N[C@H](C)c1cc(-c2cnn(C)c2)nc2ccccc12", "note": "[Example 61]", "IC50": 0.046}, {"smiles": "Cc1cc(CNC(=O)c2ncc[nH]2)ccc1C(=O)NC(C)c1cc(-c2cnn(C)c2)cc2ccccc12", "note": "(stereo not shown) [Example 62, N-(3-methyl-4-((1-(3-(1-methyl-1H-pyrazol-4-yl)naphthalen-1-yl)ethyl)carbamoyl)benzyl)-1H-imidazole-2-carboxamide]", "IC50": 0.039}, {"smiles": "COC(=O)/C=C/C(=O)NNC(=O)CCc1ccccc1C(=O)N[C@H](C)c1cc(-c2cnn(C)c2)nc2ccccc12", "note": "[Example 63, methyl(R,E)-4-(2-(3-(2-((1-(2-(1-methyl-1H-pyrazol-4-yl)quinolin-4-yl)ethyl)carbamoyl)phenyl)propanoyl)hydrazineyl)-4-oxobut-2-enoate]", "IC50": 0.003}, {"smiles": "COC(=O)/C=C/C(=O)NNC(=O)CCc1ccccc1C(=O)NC(C)c1cc(-c2cnn(C)c2)cc2ccccc12", "note": "(stereo not shown) [Example 64, methyl (E)-4-(2-(3-(2-((1-(3-(1-methyl-1H-pyrazol-4-yl)naphthalen-1-yl)ethyl)carbamoyl)phenyl)propanoyl)hydrazineyl)-4-oxobut-2-enoate]", "IC50": 0.005}, {"smiles": "COC(=O)c1c[nH]c(-c2cc(C(C)NC(=O)c3cc(CN)ccc3C)c3ccccc3c2)c1", "note": "(stereo not shown) [Example 70, methyl 5-(4-(1-(5-(aminomethyl)-2-methylbenzamido)ethyl)naphthalen-2-yl)-1H-pyrrole-3-carboxylate]", "IC50": 0.011}, {"smiles": "CNC(=O)c1c[nH]c(-c2cc(C(C)NC(=O)c3cc(CN)ccc3C)c3ccccc3c2)c1", "note": "(stereo not shown) [Example 71, 5-(4-(1-(5-(aminomethyl)-2-methylbenzamido)ethyl)naphthalen-2-yl)-N-methyl-1H-pyrrole-3-carboxamide]", "IC50": 0.016}, {"smiles": "Cc1ccc(CN)cc1C(=O)NC(C)c1cc(-c2cc(C(=O)N(C)C)c[nH]2)cc2ccccc12", "note": "(stereo not shown) [Example 72, 5-(4-(1-(5-(aminomethyl)-2-methylbenzamido)ethyl)naphthalen-2-yl)-N,N-dimethyl-1H-pyrrole-3-carboxamide]", "IC50": 0.013}, {"smiles": "Cc1ccc(N2CCN(C)CC2)cc1C(=O)NC(C)c1cc(-c2cnn(C)c2)cc2ccccc12", "note": "(stereo not shown) [Example 73, 2-methyl-N-(1-(3-(1-methyl-1H-pyrazol-4-yl)naphthalen-1-yl)ethyl)-5-(4-methylpiperazin-1-yl)benzamide]", "IC50": 0.022}, {"smiles": "Cc1cc(CNCc2cscn2)ccc1C(=O)N[C@H](C)c1cc(-c2cnn(C)c2)nc2ccccc12", "note": "[Example 74, (R)-2-methyl-N-(1-(2-(1-methyl-1H-pyrazol-4-yl)quinolin-4-yl)ethyl)-4-(((thiazol-4-ylmethyl)amino)methyl)benzamide]", "IC50": 0.008}, {"smiles": "Cc1ccc(CN)cc1C(=O)NC1(c2cc(-c3cnn(C)c3)cc3ccccc23)CC1", "note": "[Example 75, 5-(aminomethyl)-2-methyl-N-(1-(3-(1-methyl-1H-pyrazol-4-yl)naphthalen-1-yl)cyclopropyl)benzamide]", "IC50": 0.012}, {"smiles": "Cc1ccccc1C(=O)NC(C)c1cc(-c2cn[nH]c2)nc2ccccc12", "note": "(stereo not shown) [Example 101, 2-methyl-N-{1-[2-(1H-pyrazol-4-yl)quinolin-4-yl]ethyl}benzamide]", "IC50": 0.198}, {"smiles": "Cc1ccccc1C(=O)NC(C)c1cc(-c2[nH]ncc2C)nc2ccccc12", "note": "(stereo not shown) [Example 102]", "IC50": 0.904}, {"smiles": "Cc1ccccc1C(=O)NC(C)c1cc(-c2csc(C#N)c2)nc2ccccc12", "note": "(stereo not shown) [Example 103, N-{1-[2-(5-cyanothiophen-3-yl)quinolin-4-yl]ethyl}-2-methylbenzamide]", "IC50": 0.616}, {"smiles": "Cc1ccccc1C(=O)NC(C)c1cc(-c2scc3c2OCCO3)nc2ccccc12", "note": "(stereo not shown) [Example 104, N-{1-[2-(2,3-dihydrothieno [3,4-b][1,4]dioxin-5-yl)quinolin-4-yl]ethyl}-2-methylbenzamide]", "IC50": 10}, {"smiles": "COCc1cc(-c2cc(C(C)NC(=O)c3ccccc3C)c3ccccc3n2)cs1", "note": "(stereo not shown) [Example 106, N-(1-{2-[5-(methoxymethyl)thiophen-3-yl]quinolin-4-yl}ethyl)-2-methylbenzamide]", "IC50": 0.241}, {"smiles": "Cc1ccccc1C(=O)NC(C)c1cc(-c2cc(C3CC3)nn2C)nc2ccccc12", "note": "(stereo not shown) [Example 107, N-{1-[2-(3-cyclopropyl-1-methyl-1H-pyrazol-5-yl)quinolin-4-yl]ethyl}-2-methylbenzamide]", "IC50": 0.757}, {"smiles": "Cc1ccccc1C(=O)NC(C)c1cc(-c2c(C#N)cnn2C)nc2ccccc12", "note": "(stereo not shown) [Example 108, N-{1-[2-(4-cyano-1-methyl-1H-pyrazol-5-yl)quinolin-4-yl]ethyl}-2-methylbenzamide]", "IC50": 0.931}, {"smiles": "COc1cc(-c2cc(C(C)NC(=O)c3ccccc3C)c3ccccc3n2)ccn1", "note": "(stereo not shown) [Example 109]", "IC50": 0.28}, {"smiles": "Cc1ccccc1C(=O)NC(C)c1cc(-c2ccc3nonc3c2)nc2ccccc12", "note": "(stereo not shown) [Example 111, N-{1-[2-(2,1,3-benzoxadiazol-5-yl)quinolin-4-yl]ethyl}-2-methylbenzamide]", "IC50": 17.3}, {"smiles": "COCCn1cc(-c2cc(C(C)NC(=O)c3ccccc3C)c3ccccc3n2)cn1", "note": "(stereo not shown) [Example 112, N-(1-{2-[1-(2-methoxyethyl)-1H-pyrazol-4-yl]quinolin-4-yl}ethyl)-2-methylbenzamide]", "IC50": 0.294}, {"smiles": "Cc1ccccc1C(=O)NC(C)c1cc(-c2cnn(C(C)(C)C)c2)nc2ccccc12", "note": "(stereo not shown) [Example 113, N-{1-[2-(1-tert-butyl-1H-pyrazol-4-yl)quinolin-4-yl]ethyl}-2-methylbenzamide]", "IC50": 0.79}, {"smiles": "Cc1ccccc1C(=O)NC(C)c1cc(-c2cccnc2)nc2ccccc12", "note": "(stereo not shown) [Example 114, 2-methyl-N-{1-[2-(pyridin-3-yl)quinolin-4-yl]ethyl}benzamide]", "IC50": 0.877}, {"smiles": "CCn1cc(-c2cc(C(C)NC(=O)c3ccccc3C)c3ccccc3n2)c(C)n1", "note": "(stereo not shown) [Example 115, N-{1-[2-(1-ethyl-3-methyl-1H-pyrazol-4-yl)quinolin-4-yl]ethyl}-2-methylbenzamide]", "IC50": 1.08}, {"smiles": "Cc1ccccc1C(=O)NC(C)c1cc(-c2ccc3oc(=O)[nH]c3c2)nc2ccccc12", "note": "(stereo not shown) [Example 116, 2-methyl-N-{1-[2-(2-oxo-2,3-dihydro-1,3-benzoxazol-5-yl)quinolin-4-yl]ethyl} benzamide]", "IC50": 0.406}]}]}
